Read-outs that look alike come from different tables or passages of the source.
Experiments:
[1] = tested on: blood cancer cell lines (e.g. HL-60, Jurkat, Raji, Ramos, Daudi, MOLT-4); assay: Cell based assay, cell viability (CellTiter-Glo), blood cancer cell lines; conditions: Homo sapiens
In short: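 ATP content as viability surrogate, luminescent read; 72 h compound, 0–2 μM final; cells plated 24 h prior.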

[2] = tested on: cervical carcinoma cell lines; assay: Cell based assay, cell viability (CellTiter-Glo), cervical carcinoma cell lines; conditions: Homo sapiens; HeLa cells

Measured: IC50

CC(=O)c1c([S+]([O-])Cc2cnc3[nH]ccc3c2)[nH]c2c(Br)ccc(Cl)c2c1=O (stereo not drawn) [Compound 107, 2-(((1H-pyrrolo[2,3-b]pyridin-5-yl)methyl)sulfinyl)-3-acetyl-8-bromo-5-chloroquinolin-4(1H)-one]
> 2000 nM: [1]; MV4-11, blood cancer cell line MV-4-11, 72 hours, read-out: IC50, MV-4-11 | [1]; blood cancer cell line Daudi, 72 hours, read-out: IC50, Daudi | [1]; blood cancer cell line HL-60, 72 hours, read-out: IC50, HL-60 | [1]; blood cancer cell line Jurkat, 72 hours, read-out: IC50, Jurkat | [1]; blood cancer cell line MOLT-4, 72 hours, read-out: IC50, MOLT-4 | [1]; blood cancer cell line Raji, 72 hours, read-out: IC50, Raji | [1]; blood cancer cell line Ramos (RA 1), 72 hours, read-out: IC50, Ramos (RA 1) | [1]; blood cancer cell line U-937, 72 hours, read-out: IC50, U-937 | [2]

From patent US11464770B2, “Anticancer pharmaceutical composition” (NATIONAL CANCER CENTER, priority 2016, dated 2022)
